{
  "source": "patent EP1479389B1",
  "about": "“Ready to use gemcitabine solutions” (STADA ARZNEIMITTEL AG, priority 2003, dated 2004)",
  "type_in_all_cases": "physicochemical",
  "key": {"[1]": {"test": "Regressive extrapolation of the Table 6 storage stability data to 1-4 years", "settings": "10 mg/ml in aqueous solution, pH ca. 8; Lagertemperatur 25°C", "protocol": "Eine regressive Extrapolation der in Tabelle 6 angegebenen Daten ergab folgende in Tabelle 7 aufgeführte Lagerstabilitäten. Tabelle 7 : Stabilität von Gemcitabin-Lösungen mit pH = 8,0 bei 25°C, 40°C und 60°C bei einer Lagerzeit von 1-4 Jahren"}, "[2]": {"test": "pH-dependent visible crystallisation of concentrated gemcitabine solutions", "settings": "c=52,7mg Gemcitabin/ml", "protocol": "Zur Bestimmung der tatsächlichen, pH-abhängigen Löslichkeit von Gemcitabin in wässrigen Lösungen wurden entsprechend Beispiel 1 konzentrierte Gemcitabin-Lösungen (c=52,7 mg Gemcitabin/ml entsprechend 60mg Gemcitabinhydrochlorid pro ml Wasser; 5 ml/Vial) hergestellt, deren pH-Wert mit q.s. 1 N Natronlauge auf pH-Werte von 2,0 bis 5,0 eingestellt wurde. Die so erhaltenen Lösungen wurden bei einer Lagertemperatur von 2-8°C gelagert.\nTabelle 2: Stabilität von konzentrierten Gemcitabin-Lösungen vs. Auskristallisation des Wirkstoffs"}, "[3]": {"test": "Visible precipitation of aqueous gemcitabine solutions on storage (solubility, initial pH ca. 4,0)", "settings": "water, pH 4, water, 2-8°C storage, no solubility enhancers, read-out: Gehalt klarer partikelfreier Gemcitabinlösungen", "protocol": "Zur Bestimmung der Löslichkeit von Gemcitabin in wässrigen Lösungen (bei T = 25°C und T = 2-8°C, Anfangs-pH-Wert = 4,0) wurde Gemcitabinhydrochlorid in Wasser für Injektionszwecke bei 25°C gelöst (c(Gemcitabin) = 55,2 mg/ml entsprechend 62,8 mg Gemcitabinhydrochlorid pro ml Wasser sowie c(Gemcitabin) = 10,0mg/ml entsprechend 11,38 mg Gemcitabinhydrochlorid pro ml Wasser) und der pH-Wert mit q.s. 1 N Natronlauge / q.s. 1 N Salzsäure eingestellt.\nAus dem so gewonnenen Ansatz wurden mit Wasser für Injektionszwecke verdünnte Lösungen hergestellt und potentiometrisch deren pH-Wert bestimmt. Die hergestellten Lösungen wurden jeweils als 5ml-Aliquote in mit Durchstechstopfen dicht verschlossenen Vials abgefüllt. Diese Proben wurden nach Lagerung bei 2-8°C bzw. bei 25°C auf sichtbare Auskristallisation des Wirkstoffs geprüft (\"+\" Niederschlag; \"-\" klar und partikelfrei) und ihr pH-Wert bestimmt. Tabelle 1: Niederschlagbildung in 25°C und 2-8°C-gelagerter Gemcitabinlösungen (Anfangs-pH ca. 4,0)"}, "[4]": {"test": "pH-dependent visible crystallisation of concentrated gemcitabine solutions", "settings": "pH 5,0; 25°C; c=52,7 mg Gemcitabin/ml"}, "[5]": {"test": "Temperature-dependent storage stability of gemcitabine solutions pH 4,0, content by HPLC", "settings": "10 mg/ml", "protocol": "Zur weiteren Bestimmung der Temperatur-Abhängigkeit der Stabilität von erfindungsgemäßen Gemcitabin-Lösungen mit einem pH-Wert von ca. 4,0, wurden wie zuvor beschrieben Lösungen, deren pH-Wert mit 1 N Natronlauge eingestellt wurde, mit einer Gemcitabin-Konzentration von 10 mg/ml (in Wasser für Injektionszwecke) hergestellt. Diese wurden über einen Zeitraum von 12 Monaten gelagert. In dieser Zeit wurde die Wirkstoffkonzentration in regelmäßigen Abständen mittels HPLC bestimmt. Tabelle 3: Temperatur-abhängige Stabilität von Gemcitabin-Lösungen (c(Gemcitabin) = 10 mg/ml entsprechend 11,39 mg Gemcitabinhydrochlorid pro ml Wasser, pH 4,0)"}},
  "data": [
    {"smiles": "Nc1ccn([C@@H]2O[C@H](CO)[C@@H](O)C2(F)F)c(=O)n1", "note": "[Gemcitabin, 2'-Deoxy-2',2'-difluorcytidin]", "values": [
      {"measurement": "Dauer, über die die Lösungen stabil sind", "setting": "[1]", "result": "≥ 3", "unit": "Jahren"},
      {"measurement": "Sichtbare Auskristallisation", "setting": "[2]; pH 2,0, nach 1 Tag (2-8°C)", "result": "+"},
      {"measurement": "Sichtbare Auskristallisation", "setting": "[2]; pH 2,0, nach 2 Tagen (2-8°C)", "result": "+"},
      {"measurement": "Sichtbare Auskristallisation", "setting": "[2]; pH 2,0, nach 3 Tagen (2-8°C)", "result": "+"},
      {"measurement": "Sichtbare Auskristallisation", "setting": "[2]; pH 2,0, nach 7 Tagen (2-8°C)", "result": "+"},
      {"measurement": "Sichtbare Auskristallisation", "setting": "[2]; pH 2,0, nach 14 Tagen (2-8°C)", "result": "+"},
      {"measurement": "Sichtbare Auskristallisation", "setting": "[2]; pH 2,5, nach 1 Tag (2-8°C)", "result": "-"},
      {"measurement": "Sichtbare Auskristallisation", "setting": "[2]; pH 2,5, nach 2 Tagen (2-8°C)", "result": "+"},
      {"measurement": "Sichtbare Auskristallisation", "setting": "[2]; pH 2,5, nach 3 Tagen (2-8°C)", "result": "+"},
      {"measurement": "Sichtbare Auskristallisation", "setting": "[2]; pH 2,5, nach 7 Tagen (2-8°C)", "result": "+"},
      {"measurement": "Sichtbare Auskristallisation", "setting": "[2]; pH 2,5, nach 14 Tagen (2-8°C)", "result": "+"},
      {"measurement": "Sichtbare Auskristallisation", "setting": "[2]; pH 3,0, nach 1 Tag (2-8°C)", "result": "-"},
      {"measurement": "Sichtbare Auskristallisation", "setting": "[2]; pH 3,0, nach 2 Tagen (2-8°C)", "result": "+"},
      {"measurement": "Sichtbare Auskristallisation", "setting": "[2]; pH 3,0, nach 3 Tagen (2-8°C)", "result": "+"},
      {"measurement": "Sichtbare Auskristallisation", "setting": "[2]; pH 3,0, nach 7 Tagen (2-8°C)", "result": "+"},
      {"measurement": "Sichtbare Auskristallisation", "setting": "[2]; pH 3,0, nach 14 Tagen (2-8°C)", "result": "+"},
      {"measurement": "Sichtbare Auskristallisation", "setting": "[2]; pH 3,5, nach 1 Tag (2-8°C)", "result": "-"},
      {"measurement": "Sichtbare Auskristallisation", "setting": "[2]; pH 3,5, nach 2 Tagen (2-8°C)", "result": "-"},
      {"measurement": "Sichtbare Auskristallisation", "setting": "[2]; pH 3,5, nach 3 Tagen (2-8°C)", "result": "-"},
      {"measurement": "Sichtbare Auskristallisation", "setting": "[2]; pH 3,5, nach 7 Tagen (2-8°C)", "result": "-"},
      {"measurement": "Sichtbare Auskristallisation", "setting": "[2]; pH 3,5, nach 14 Tagen (2-8°C)", "result": "-"},
      {"measurement": "solubility", "setting": "[3]", "result": "~10000", "unit": "µg/mL"},
      {"measurement": "Auskristallisation", "setting": "[4]", "result": "spontane (pH 5,0; 25°C) Auskristallisation"},
      {"measurement": "Gehalt", "setting": "[5]; 5°C, 0 mon", "result": "100,0 rel.%"},
      {"measurement": "Gehalt", "setting": "[5]; 5°C, 3 mon, 129600 min", "result": "99,7 rel.%"},
      {"measurement": "Gehalt", "setting": "[5]; 5°C, 6 mon, 259200 min", "result": "99,4 rel.%"},
      {"measurement": "Gehalt", "setting": "[5]; 5°C, 9 mon, 388800 min", "result": "99,2 rel.%"},
      {"measurement": "Gehalt", "setting": "[5]; 5°C, 12 mon, 518400 min", "result": "99,0 rel.%"},
      {"measurement": "Gehalt", "setting": "[5]; 15°C, 0 mon", "result": "100,0 rel.%"},
      {"measurement": "Gehalt", "setting": "[5]; 15°C, 3 mon, 129600 min", "result": "99,6 rel.%"},
      {"measurement": "Gehalt", "setting": "[5]; 15°C, 6 mon, 259200 min", "result": "99,2 rel.%"},
      {"measurement": "Gehalt", "setting": "[5]; 15°C, 9 mon, 388800 min", "result": "98,8 rel.%"},
      {"measurement": "Gehalt", "setting": "[5]; 15°C, 12 mon, 518400 min", "result": "98,3 rel.%"},
      {"measurement": "Gehalt", "setting": "[5]; 25°C, 0 mon", "result": "100,0 rel.%"},
      {"measurement": "Gehalt", "setting": "[5]; 25°C, 3 mon, 129600 min", "result": "97,1 rel.%"},
      {"measurement": "Gehalt", "setting": "[5]; 25°C, 6 mon, 259200 min", "result": "94,1 rel.%"}
    ]}
  ]
}
